Molecular target: Transient receptor potential vanilloid 1 (TRPV1) (Mus musculus, UniProt Q704Y3)
Experiment: whole-cell patch clamp of native TRPV1 currents in cultured mouse DRG neurons
Type: cell-based

Sequence of Transient receptor potential vanilloid 1 (TRPV1) (Q704Y3 whole entry): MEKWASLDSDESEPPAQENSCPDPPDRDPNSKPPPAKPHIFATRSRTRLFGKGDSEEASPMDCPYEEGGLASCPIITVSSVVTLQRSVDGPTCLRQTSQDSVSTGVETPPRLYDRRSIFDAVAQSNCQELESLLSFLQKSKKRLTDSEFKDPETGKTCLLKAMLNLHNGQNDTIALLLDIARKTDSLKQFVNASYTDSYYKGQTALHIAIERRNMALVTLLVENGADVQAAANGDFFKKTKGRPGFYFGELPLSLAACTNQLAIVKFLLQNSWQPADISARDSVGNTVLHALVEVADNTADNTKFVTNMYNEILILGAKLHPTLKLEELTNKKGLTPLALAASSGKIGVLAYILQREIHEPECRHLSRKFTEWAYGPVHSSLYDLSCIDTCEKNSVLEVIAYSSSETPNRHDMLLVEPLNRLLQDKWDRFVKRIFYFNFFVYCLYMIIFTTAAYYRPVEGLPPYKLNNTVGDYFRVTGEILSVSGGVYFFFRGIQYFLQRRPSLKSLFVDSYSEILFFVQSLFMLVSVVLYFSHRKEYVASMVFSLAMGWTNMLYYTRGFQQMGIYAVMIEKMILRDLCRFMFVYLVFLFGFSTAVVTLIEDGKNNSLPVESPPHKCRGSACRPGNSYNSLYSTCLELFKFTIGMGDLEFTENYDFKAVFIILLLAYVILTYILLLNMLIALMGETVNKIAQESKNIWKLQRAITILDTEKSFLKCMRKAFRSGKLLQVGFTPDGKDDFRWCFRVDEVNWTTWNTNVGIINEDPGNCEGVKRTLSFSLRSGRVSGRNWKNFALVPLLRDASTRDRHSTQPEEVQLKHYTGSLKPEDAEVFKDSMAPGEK

IC50: 523 nM
Structure (SMILES): COc1cc(/C=C/C(=O)CC(=O)/C=C/c2ccc(O)c(OC)c2)ccc1O [curcumin]

Reference: PMC6115343 (The Korean Journal of Physiology & Pharmacology : …, 2018)
